Assay results taken from patent publication US6436956B1, “Useful form of anhydrous paroxetine hydrochloride” (Brantford Chemicals Inc., priority 1996, dated 2002).
Where a name gives a salt, the structure may show the parent alone. Read-outs that look alike come from different tables or passages of the source.

How the values were obtained:
[1] = hygroscopicity / moisture uptake on exposure to open air; format: physicochemical
[2] = solid-form stability, conversion to the hemihydrate polymorph (DSC maximum of 143° C.); format: physicochemical
[3] = bulk density and tapped density of the solid; format: physicochemical
[4] = prior-art form, from literature; cited from earlier work
[5] = prior-art form, purported; cited from earlier work
[6] = Form IV as described in summary (material of Example 2)
[7] = material of Example 5 (methanol solution evaporated to foam, dried, pulverized)

SMILES: Cl.Fc1ccc([C@@H]2CCNC[C@H]2COc2ccc3c(c2)OCO3)cc1 [Form IV, paroxetine hydrochloride (anhydrous)]
- hygroscopic nature [1]: substantially non-hygroscopic
- moisture taken on ([1]; exposed to open air for three days, ca. 50% relative humidity): ≤ 1.5 % by weight
- stability [2]: very stable
- rate of conversion to the hemihydrate polymorph ([2]; even in humid environments, DSC maximum of 143° C. as indicator): negligible rate
- bulk density [3, 6]: exceeding 0.6 g/mL
- tapped density [3, 6]: exceeding 0.9 g/mL
- bulk density [3, 7]: exceeding 0.43 g/mL
- tapped density [3, 7]: > 0.58 g/mL

SMILES: Fc1ccc([C@@H]2CCNC[C@H]2COc2ccc3c(c2)OCO3)cc1 [anhydrous form, paroxetine hydrochloride]
- hygroscopic nature [4]: hygroscopic

SMILES: Fc1ccc([C@@H]2CCNC[C@H]2COc2ccc3c(c2)OCO3)cc1 [hemihydrate form, paroxetine hydrochloride hemihydrate]
- stability [5]: purportedly stable
